The results in this text go back to patent publication US11518754B2, “Radiolabeled pharmaceuticals and methods of making and using same” (YALE UNIVERSITY, priority 2017, dated 2022).

Data set [1] addresses SV2A (Macaca mulatta, UniProt H9EQH8). Kind of data set: PET imaging studies in rhesus monkeys. The note with it: for Binding potential (BPND): from VT, centrum semiovale as reference region; for Displacement of radiotracer binding by levetiracetam: levetiracetam 30 mg/kg i.v. infused 60 or 90 min post injection of the radiotracer; for time to SUV peak in gray matter regions: rhesus monkey, in vivo, iv; for blocking of radiotracer specific binding to SV2A: levetiracetam 30 mg/kg i.v. or UCB-J 150 μg/kg i.v. before radiotracer injection. The protocol: Experiments were performed in rhesus monkeys (Macaca mulatta). Rhesus monkeys were sedated using intramuscular (i.m.) injection of ketamine and glycopyrrolate approximately 2 hours before the PET scan and anesthesia was maintained with isoflurane (1.5%-2.5%) for the duration of the experiments. Baseline PET scans were obtained after intravenous (i.v.) injection of ^11C-3, ^18F-3, ^18F-4, ^18F-5, ^18F-10, ^18F-11, or ^18F-12.
Arterial blood samples were collected during the PET scans to calculate the plasma input function and to determine the unmetabolized parent fraction using the automatic column-switching HPLC system. Plasma free fraction (fp) was measured in triplicate using the ultrafiltration method.
PET scans of the brain were acquired using the FOCUS 220 PET scanner (Siemens Preclinical Solutions) with a reconstructed image resolution of approximately 1.5 mm. After a transmission scan, the radioligand was injected i.v. as a 3 min slow bolus by an infusion pump (PHD 22/2000; Harvard Apparatus). List-mode data were acquired for 120-180 min and binned into sinograms with an applicable number of frames. Scan data were reconstructed with a Fourier rebinning/filtered backprojection algorithm with corrections for attenuation, scanner normalization, radiation scatter, and randoms. Regions of interest were manually delineated on a single representative anatomic rhesus monkey MR image registered to a template image. The regions used in this study were amygdala, brain stem, caudate, centrum semiovale, cerebellum, cingulate cortex, frontal cortex, globus pallidus, insular cortex, nucleus accumbens, occipital cortex, pons, putamen, temporal cortex, and thalamus. Registration parameters were obtained to apply the regions of interest to individual PET scans, and regional time-activity curves were generated. Regional time-activity curves of the brain were analyzed with the 1-tissue-(1T) compartment model. Fit quality was compared with the 2-tissue model and the multilinear analysis method to calculate VT.
Typical injected radioactivity amount was 0.5-5 mCi per injection, with typical injected mass amount of 1-10 μg.
Specific binding to SV2A was further examined for ^11C-3, ^18F-3, and ^18F-11 in blocking studies, where levetiracetam or UCB-J ((R)-3) was i.v. infused before injection of the radiotracers.

The nature of data set [2]: Plasma free fraction (fp) by ultrafiltration method. It counts as in vitro ADME, rhesus monkeys (Macaca mulatta). The settings on record: plasma (from arterial blood samples), rhesus monkey plasma.
Data set [3] addresses SV2A (Rattus norvegicus (Rat), UniProt Q02563).
Protocol: One Sprague Dawley rat was euthanized with carbon dioxide inhalation. The brain was harvested, rapidly frozen on dry ice and then stored at −80° C. The whole brain homogenates were obtained following published procedures. The final homogenate was suspended in 20 mM Tris-HCl buffer (pH 7.4) containing 250 mM of sucrose at a wet tissue concentration of 100 mg/mL and stored at −80° C. until use.
For competition binding experiments, 0.5 mg of the rat brain homogenates in 800 μL of binding buffer (2 mM MgCl2 in 50 mM Tris*HCl, pH=7.4) were incubated on a thermoshaker at 37° C. for 30 min with 100 μL (R)-^11C-3 or (R)-^18F-11 and 100 μL of the compound over a range of concentrations (from 0.1 to 100 nM). Nonspecific binding was defined as the residual binding observed in the presence of 1 mM levetiracetam (100 μL). At completion of the incubation period, the membrane-bound radioligand was recovered using rapid filtration through GF/B glass fiber filters (13 mm GD/X, Whatman Inc.) which were pre-soaked for at least 30 min in 0.5% polyethyleneimine (PEI). The membranes were washed twice with 1 mL of ice-cooled binding buffer. The binding mixtures, filters and filtrates were counted using cross-calibrated gamma counters (1480 & 2480 WIZARD; Perkin-Elmer). Values of IC50 were calculated using the [sequence] PRISM™ software and converted to inhibition constants (Ki) by the Cheng-Prusoff equation.
Where [4] appears, read: converted from IC50 by the Cheng-Prusoff equation.
The mark [5] stands for this setting: rat brain homogenates, radioligand (R)-11C-3 or (R)-18F-11, 37° C., 30 min.
Setting [6] is: IC50, rat brain homogenates, radioligand (R)-11C-3 or (R)-18F-11, 37° C., 30 min.
Where [7] appears, read: Ki, converted from IC50 by the Cheng-Prusoff equation.

Read-outs that look alike come from different tables or passages of the source.

Chain of SV2A (Macaca mulatta, UniProt H9EQH8) (H9EQH8 1-742): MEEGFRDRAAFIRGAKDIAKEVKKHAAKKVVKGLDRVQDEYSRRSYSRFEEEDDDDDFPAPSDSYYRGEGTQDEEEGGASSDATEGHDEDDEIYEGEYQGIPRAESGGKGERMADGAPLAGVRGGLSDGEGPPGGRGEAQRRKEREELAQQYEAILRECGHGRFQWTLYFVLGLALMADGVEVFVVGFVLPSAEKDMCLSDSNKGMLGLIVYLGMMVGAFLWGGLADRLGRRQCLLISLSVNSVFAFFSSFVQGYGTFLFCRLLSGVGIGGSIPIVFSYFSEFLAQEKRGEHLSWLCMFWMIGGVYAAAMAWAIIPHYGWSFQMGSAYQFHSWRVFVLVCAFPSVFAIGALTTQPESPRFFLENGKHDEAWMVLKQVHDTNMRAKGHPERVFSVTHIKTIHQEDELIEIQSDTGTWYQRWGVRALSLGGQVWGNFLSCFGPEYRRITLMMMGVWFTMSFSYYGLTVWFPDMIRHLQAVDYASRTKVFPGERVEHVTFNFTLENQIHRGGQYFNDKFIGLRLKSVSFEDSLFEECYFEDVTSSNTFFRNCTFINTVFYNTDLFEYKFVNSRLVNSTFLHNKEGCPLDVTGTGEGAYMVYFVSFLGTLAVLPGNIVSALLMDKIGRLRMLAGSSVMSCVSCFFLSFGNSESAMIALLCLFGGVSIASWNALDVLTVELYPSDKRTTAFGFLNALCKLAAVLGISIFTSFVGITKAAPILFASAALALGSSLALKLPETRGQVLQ
Chain of SV2A (Rattus norvegicus (Rat), UniProt Q02563) (Q02563 whole entry): as the sequence (H9EQH8 1-742) above, with D53E, S62A, S64G, T71A, E144D, A154T, G440S, S482A, M634L counted along it

For orientation: fraction unbound means free concentration divided by total concentration. In the case of `O=C1CC(c2cccc(F)c2)CN1Cc1ccncc1` (centres unmarked) [^18F-12, 4-(3-Fluorophenyl)-1-(pyridin-4-ylmethyl)pyrrolidin-2-one], the “Binding potential (BPND)” value at SV2A [1] (Amygdala) is 0.04; at SV2A [1] (Brainstem) it was −0.06; at SV2A [1] (Caudate nucleus) it was 0.75; at SV2A [1] (Cerebellum) it was 0.25; on SV2A [1] (Cingulate cortex), 1.45; on SV2A [1] (Frontal cortex), 1.28. The “Binding potential (BPND)” value at SV2A [1] (Globus pallidus) is 0.29; at SV2A [1] (Hippocampus), 0.44; on SV2A [1] (Insular cortex) it was 1.09; on SV2A [1] (Nucleus accumbens), 1.18; on SV2A [1] (Occipital cortex) it was 0.90; on SV2A [1] (Pons), −0.09. The “Binding potential (BPND)” value was 0.86 at SV2A [1] (Putamen), 0.95 at SV2A [1] (Temporal cortex) and 0.42 on SV2A [1] (Thalamus). Moreover, the “Displacement of radiotracer binding by levetiracetam” value (“Displacement of radiotracer binding” for short) on SV2A [1] was “reduced the binding of these tracers to a significant extent”. On SV2A [1], the “time to SUV peak in gray matter regions” value is given as ≤ 10 min. The free fraction (fraction unbound) in data set [2] stood at 0.61.
For orientation: Ki means the equilibrium dissociation constant of an inhibitor or competing ligand from its target. A word on the IC50: it is the midpoint of a concentration-inhibition curve. The compound `Cc1cnccc1CN1C[C@H](c2ccc(F)c(F)c2)CC1=O` (single isomer, unassigned) [(S)-4, 4-(3,4-difluorophenyl)-1-((3-methylpyridin-4-yl)methyl)pyrrolidin-2-one] returned a Ki on SV2A [3] (setting [4]) of 9.43 nM. For the same compound, the half-maximal inhibitory concentration (IC50) at SV2A [3] (setting [5]) came to 57 nM.
For `Cc1cnccc1CN1CC(c2cc(F)c(F)c(F)c2)CC1=O` (centres unmarked) [^18F-3, 1-((3-methylpyridin-4-yl)methyl)-4-(3,4,5-trifluorophenyl) pyrrolidin-2-one], the “Binding potential (BPND)” value at SV2A [1] (Amygdala) was found to be 1.65 ± 1.04; at SV2A [1] (Brainstem), 0.84 ± 0.28; at SV2A [1] (Caudate nucleus), 2.54 ± 0.60; on SV2A [1] (Cerebellum) it was 1.88 ± 0.42; at SV2A [1] (Cingulate cortex) it was 4.04 ± 0.38; at SV2A [1] (Frontal cortex), 3.90 ± 0.54. For the same compound, the “Binding potential (BPND)” value on SV2A [1] (Globus pallidus) is reported as 1.08 ± 0.59; at SV2A [1] (Hippocampus) it was 1.99 ± 0.75; at SV2A [1] (Insular cortex), 3.51 ± 0.56; on SV2A [1] (Nucleus accumbens) it was 3.85 ± 0.57; on SV2A [1] (Occipital cortex) it was 3.35 ± 0.27; on SV2A [1] (Pons), 0.80 ± 0.26. Further, the “Binding potential (BPND)” value on SV2A [1] (Putamen) came to 2.62 ± 0.46; at SV2A [1] (Temporal cortex), 3.14 ± 0.41; on SV2A [1] (Thalamus), 2.53 ± 1.18. Further, on SV2A [1], the “Displacement of radiotracer binding” value is “reduced the binding of these tracers to a significant extent”. The “Uptake of radiotracer in blocking studies” value at SV2A [1] (levetiracetam (30 mg/kg) or UCB-J (150 μg/kg) i.v. 10 min before radiotracer injection) is reported as “reduced to background levels”. Besides, the “time to SUV peak in gray matter regions” value on SV2A [1] is “slower”. The fraction unbound in data set [2] was determined as 0.42 ± 0.06.
Regarding `Cc1cnccc1CN1CC(c2ccc(F)c(F)c2)CC1=O` (centres unmarked) [^18F-4, 4-(3,4-difluorophenyl)-1-((3-methylpyridin-4-yl)methyl)pyrrolidin-2-one], the “Binding potential (BPND)” value on SV2A [1] (Amygdala) is 0.66; at SV2A [1] (Brainstem), 0.75; on SV2A [1] (Caudate nucleus) it was 1.72; on SV2A [1] (Cerebellum) it was 0.55; on SV2A [1] (Cingulate cortex), 2.60; at SV2A [1] (Frontal cortex), 2.51. The “Binding potential (BPND)” value at SV2A [1] (Globus pallidus) is recorded as 0.95; on SV2A [1] (Hippocampus) it was 1.35; at SV2A [1] (Insular cortex) it was 2.41; at SV2A [1] (Nucleus accumbens), 2.47; at SV2A [1] (Occipital cortex), 2.30; on SV2A [1] (Pons), 0.73. In addition, the “Binding potential (BPND)” value was 1.86 at SV2A [1] (Putamen), 2.21 on SV2A [1] (Temporal cortex) and 1.65 on SV2A [1] (Thalamus). Also, the “Displacement of radiotracer binding” value on SV2A [1] was “reduced the binding of these tracers to a significant extent”. In addition, the “time to SUV peak in gray matter regions” value on SV2A [1] is listed as ≤ 10 min. Further, the fraction unbound in data set [2] amounted to 0.41.
In turn, `Cc1cnccc1CN1C[C@@H](c2cc(F)cc(F)c2)CC1=O` (single isomer, unassigned) [Compound (R)-5, 4-(3,5-Difluorophenyl)-1-((3-methylpyridin-4-yl)methyl)pyrrolidin-2-one] gave a Ki on SV2A [3] (setting [4]) of 0.58 nM. Further, the 50% inhibitory concentration (IC50) at SV2A [3] (setting [5]) was found to be 3.52 nM.
For `O=C1C[C@H](c2cccc(F)c2)CN1Cc1ccncc1` (single isomer, unassigned) [(R)-12, 4-(3-Fluorophenyl)-1-(pyridin-4-ylmethyl)pyrrolidin-2-one], in that order: 4.43 nM and 26.8 nM.
For `Cc1cnccc1CN1C[C@H](c2cc(F)c(F)c(F)c2)CC1=O` (single isomer, unassigned) [(S)-3, 1-((3-methylpyridin-4-yl)methyl)-4-(3,4,5-trifluorophenyl) pyrrolidin-2-one], in that order: 12.5 nM and 75.6 nM.
`Cc1cnccc1CN1CC(c2cccc(F)c2)CC1=O` (single isomer, unassigned) [(R)-11, 4-(3-Fluorophenyl)-1-((3-methylpyridin-4-yl)methyl)pyrrolidin-2-one] returned an IC50 at SV2A [3] (setting [6]) of 26.9 nM. This compound also came in with a Ki on SV2A [3] (setting [7]) of 4.44 nM.
For `Cc1cnccc1CN1CC(c2cccc(F)c2)CC1=O` (single isomer, unassigned) [(S)-11, 4-(3-Fluorophenyl)-1-((3-methylpyridin-4-yl)methyl)pyrrolidin-2-one], in that order: 109 nM and 18.2 nM.
For the compound `Cc1cnccc1CN1CC(c2ccc(F)c(F)c2)CC1=O` (single isomer, unassigned) [(R)-4, 4-(3,4-difluorophenyl)-1-((3-methylpyridin-4-yl)methyl)pyrrolidin-2-one], on SV2A [3], the IC50 was 12.6 nM and the Ki was found to be 2.08 nM.
For the compound `CC[C@@H](C(N)=O)N1CCCC1=O` [levetiracetam, reference compound], at SV2A [1], the “blocking of radiotracer specific binding to SV2A” value is recorded as “blocking of specific binding”.
On SV2A [3], `O=C1CC(c2cccc(F)c2)CN1Cc1ccncc1` (single isomer, unassigned) [(S)-12, 4-(3-Fluorophenyl)-1-(pyridin-4-ylmethyl)pyrrolidin-2-one] showed an IC50 of 28.2 nM and a Ki of 4.66 nM.
At SV2A [3] (setting [4]), `Cc1cnccc1CN1C[C@H](c2cc(F)cc(F)c2)CC1=O` (single isomer, unassigned) [(S)-5, 4-(3,5-Difluorophenyl)-1-((3-methylpyridin-4-yl)methyl)pyrrolidin-2-one] yielded an inhibition constant (Ki) of 115 nM. The IC50 on SV2A [3] (setting [5]) was 698 nM.
For `Cc1cnccc1CN1CC(c2cc(F)c(F)c(F)c2)CC1=O` (single isomer, unassigned) [(R)-3, 1-((3-methylpyridin-4-yl)methyl)-4-(3,4,5-trifluorophenyl) pyrrolidin-2-one], the “blocking of radiotracer specific binding to SV2A” value at SV2A [1] was “blocking of specific binding”. Also, the IC50 at SV2A [3] (setting [6]) came out at 1.62 nM. On SV2A [3] (setting [7]), this compound displayed an inhibitory constant (Ki) of 0.27 nM.
